Experimental data: patent publication US20050075271A1, “Crystalline beta2 adrenergic receptor agonist” (priority 2002, published 2005)
Each block holds one compound with its values, some of them ahead of it.

Tests used:
Assay type in all cases: physicochemical
[1] = Stability testing of aqueous nebulizer formulation (Formulation Example 1), HPLC, 1-4 months storage; conditions: for Percent of active compound remaining: aqueous formulation 0.1 mg/g, pH 5.00
Description: (§1) An aqueous aerosol formulation for nebulizer administration having 0.1 mg of the active compound, compound 1, per gram of solution was prepared by the following procedure. Citric acid (755.8 mg) was added to a vessel charged with 0.9% sodium chloride solution (325.7 g). The active ingredient (42.3 mg) was added to the sodium chloride solution and the resulting mixture was stirred for 5 min and sonicated for 7 min to dissolve the active ingredient. The intial pH of the solution was determined to be 2.54. 1 N NaOH (7.1 g) was slowly added to the solution to obtain a final pH of 5.00. An additional amount of 0.9% sodium chloride solution (26.7 g) was added and the resulting solution was stirred to provide the aqueous formulation (360.3 g).
Aliquots of the formulation prepared as in Example 1 were stored at −20° C., 5° C., room temperature, and 40° C. Samples were removed for analysis by HPLC at 1 month intervals. HPLC analysis was conducted using a Zorbax RP-bonus, C14, 25 cm×4.6 mm column, equilibrated at 35° C. The mobile phases used were: A: 0.1% TFA in 98:2 water:acetonitrile; and B: 0.1% TFA in 10:90 water:acetonitrile. Detection was by UV absorbance at 215 nm. A flow rate of 1.0 mL/min and a gradient of 0 to 60% B over 20 minutes was utilized. The percent of active compound 1 remaining after the indicated period, normalized to the sample stored at −20° C. is given in Table 1 below.

[2] = Second stability test of aqueous nebulizer formulation, HPLC, 4-9 months storage; conditions: nine months at 5° C.
[3] = as above; conditions: normalized to −20° C. sample
Description: as §1
In a second stability test, aliquots were prepared and stored as above. Samples were removed for analysis by HPLC at various intervals. HPLC analysis was conducted using a MAC MOD Ace-5, C18, 25 cm×4.6 mm, 5 μm column, equilibrated at 30° C. The mobile phases were as described above. Detection was by UV absorbance at 244 nm. The initial condition was 6% phase B. A flow rate of 1.0 mL/min and a gradient of 6 to 30% B over 25 min, 30% to 60% B in 10 min and 60% to 100% B in 2 min were utilized. The retention time of compound 1 was approximately 20 min. The percent of active compound 1 remaining after the indicated period, normalized to the sample stored at −20° C. is given in Table 2 below.

[4] = Solid state stability of recrystallized diHCl salt, 6 months at 40° C. and 75% relative humidity
Description: In another test, samples of the recrystallized diHCl salt of Example 7a were stored at 40° C. and 75% relative humidity.
(§2) Thermogravimetric analysis was conducted using a TA instruments model Q50. Samples were weighed in aluminum pans and heated from 50° C. to 300° C. at a rate of 10° C./min. Water content was estimated by measuring the total weight loss between 50° and 120° C. (a range in which no significant decomposition was observed).
(§3) Unless otherwise indicated, HPLC analysis was conducted using a Zorbax RP-bonus, C14, 25 cm×4.6 mm column, equilibrated at 35° C. The mobile phases used were: A: 0.1% TFA in 98:2 water:acetonitrile; and B: 0.1% TFA in 10:90 water:acetonitrile. Detection was by UV absorbance at 215 nm. A flow rate of 1.0 mL/min and a gradient of 0 to 60% B over 20 minutes was utilized. The diHCl salt of compound 1 gave a retention time of 11.7 min.
Chiral purity was determined using a Beckman P/ACE MDQ capillary electrophoresis system. The analysis was performed at pH 2.5 using heptakis-(2,3,-diacetyl-6-sulfato)-β-cyclodextrin (HDAS-β-CD) as the chiral selector and using a 50 μm×31.2 cm fused silica capillary. Detection was by UV absorbance at 200 nm. The four stereoisomers migrate in the following order: SS, RS, SR, RR, where compound 1 is designated as RR.

[5] = Solid state stability testing of crystalline diHCl salt, ground and unground, 30 days (DSC, TGA, XRPD, HPLC); conditions: for crystal stability by DSC after exposure to elevated temperature and humidity: 40° C. and 75% relative humidity vs room temperature desiccator, ground and unground samples, dihydrochloride
Description: A single lot of the crystalline diHCl salt of compound 1]prepared as in Example 6, was used to prepare four samples of approximately 30 mg each. Two samples were ground to fine particles with a mortar and pestle. Two samples, one ground and one that had not been processed, were stored in a closed chamber at 40° C. and 75% relative humidity for 30 days and two samples, one ground and one that had not been processed, were stored at room temperature in a desiccators for the same period. Samples were withdrawn for analysis by DSC and TGA at 11 days and by XRPD and HPLC at 30 days.
X-ray powder diffraction patterns were obtained with a Shimadzu 6000 diffractometer using Cu Kα (40.0 kV, 35.0 mA) radiation. The analysis was performed with the goniometer running in continuous-scan mode of 2°/min with a step size of 0.02° over a range of 4 to 45°. Samples were prepared on glass specimen holders as a thin layer of powdered material.
Differential scanning calorimetry traces were obtained with a TA instruments model DSC2010. Samples were placed in sealed aluminum pans for analysis with an empty pan serving as the reference. Samples were equilibrated at 30° C. and heated at 5° C. per minute to a temperature of 300° C. The instrument was calibrated with an indium standard.
as §2, §3

[6] = 6 months at 40° C. and 75% relative humidity
[7] = 40° C. and 75% relative humidity, 30 days, ground and unground

Percent of active compound remaining ([1]; 5° C., 1 month, normalized to sample stored at −20° C.): 101% | Percent of active compound remaining ([1]; 5° C., 2 months, normalized to −20° C. sample): 100% | Percent of active compound remaining ([1]; 5° C., 3 months, normalized to −20° C. sample): 100% | Percent of active compound remaining ([1]; 5° C., 4 months, normalized to −20° C. sample): 99% | Percent of active compound remaining ([1]; 40° C., 1 month, normalized to −20° C. sample): 94% | Percent of active compound remaining ([1]; 40° C., 2 months, normalized to −20° C. sample): 87% | Percent of active compound remaining ([1]; 40° C., 3 months, normalized to −20° C. sample): 72% | Percent of active compound remaining ([1]; 40° C., 4 months, normalized to −20° C. sample): 74% | chemical degradation of nebulizer solution upon storage (HPLC) ([1]; nebulizer solution 0.1 mg compound 1 per gram, four months at room temperature): no unacceptable chemical degradation | Percent of active compound remaining ([1]; room temperature, 1 month, normalized to −20° C. sample): 99% | Percent of active compound remaining ([1]; room temperature, 2 months, normalized to −20° C. sample): 99% | Percent of active compound remaining ([1]; room temperature, 3 months, normalized to −20° C. sample): 97% | Percent of active compound remaining ([1]; room temperature, 4 months, normalized to −20° C. sample): 96% | free base composition of nebulizer solution upon storage [2]: essentially unchanged | Percent of active compound remaining ([3]; 5° C., 4 months): 99% | Percent of active compound remaining ([3]; 5° C., 5 months): 99% | Percent of active compound remaining ([3]; 5° C., 6 months): 100% | Percent of active compound remaining ([3]; 5° C., 9 months): 99% | Percent of active compound remaining ([3]; 40° C., 4 months): 74% | Percent of active compound remaining ([3]; 40° C., 5 months): 69% | Percent of active compound remaining ([3]; 40° C., 6 months): 63% | Percent of active compound remaining ([3]; room temperature, 4 months): 97% | Percent of active compound remaining ([3]; room temperature, 5 months): 95% | Percent of active compound remaining ([3]; room temperature, 6 months): 94% | Percent of active compound remaining ([3]; room temperature, 9 months): 90%
SMILES: O=CNc1cc([C@@H](O)CNCCc2ccc(NC[C@H](O)c3ccccc3)cc2)ccc1O [compound 1, N-{2-[4-((R)-2-hydroxy-2-phenylethylamino)phenyl]ethyl}-(R)-2-hydroxy-2-(3-formamido-4-hydroxyphenyl)ethylamine]

water content ([4]; 6 mo at 40° C. and 75% relative humidity): 0.37% | appearance of the material after storage [4, 6]: no visible contamination | chemical purity by HPLC analysis after storage [4, 6]: essentially unchanged | chiral purity after storage [4, 6]: no change | water content ([4]; initially): 0.12% | crystal stability by DSC after exposure to elevated temperature and humidity ([5]; listed as crystalline diHCl salt): no detectable difference | XRPD pattern after exposure to heat and humidity [5, 7]: not appreciably affected | chemical degradation by HPLC [5, 7]: no appreciable chemical degradation | thermal stability ([5]; elevated temperatures): thermally stable | hygroscopicity ([5]; exposed to the atmosphere for prolonged periods at high relative humidity): neither hygroscopic nor deliquescent | decomposition on grinding into micronized particles ([5]; ground into micronized particles): without significant decomposition
SMILES: Cl.Cl.O=CNc1cc([C@@H](O)CNCCc2ccc(NC[C@H](O)c3ccccc3)cc2)ccc1O [crystalline diHCl salt of compound 1, N-{2-[4-((R)-2-hydroxy-2-phenylethylamino)phenyl]ethyl}-(R)-2-hydroxy-2-(3-formamido-4-hydroxyphenyl)ethylamine dihydrochloride]
crystal stability by DSC after exposure to elevated temperature and humidity [5]: no detectable effect on crystal stability | water associated with crystals by TGA after exposure to high relative humidity ([5]; 40° C. and 75% relative humidity, ground and unground crystals, 11 days): no appreciable quantity of water becomes associated
